In patent US12186311B2, “Antiproliferative compounds and second active agents for combined use” (Celgene Corporation, priority 2019, dated 2025):

How the values were obtained:
[1] = target: T1, dopamine D2S receptor in transfected HEK-293 cells (Homo sapiens, UniProt P14416); assay: Dopamine D2S receptor binding at 10 μM; conditions: read-out: Dopamine D2S % Inh. (@10 uM)
T1 construct: host or cells: HEK-293
Procedure: (§1) α1 Adrenergic and Dopamine D2 Receptors. Methods: Binding and functional assays for al adrenergic and dopamine D2 receptors were performed by Eurofins Cerep according to their methods.
Dopamine D2 Receptor. Binding at 10 μM. The binding assay evaluated the affinity of test articles for the dopamine D2 receptor in transfected human embryonic kidney (HEK)-293 cells. For determining the binding in the D2s receptor assay, test article was incubated with 0.3 nM [^3H] methylspiperone or 1 nM [^3H] 7-hydroxy-2-N,N-dipropylaminotetralin (7-OH-DPAT). [^3H] Methylspiperone at 0.3 nM also was used as control ligand in the D2L binding assay. Cell membrane homogenates were incubated in duplicate at room temperature for 60 minutes with ligand in the absence or presence of test articles at 10 μM. After the incubation period, samples were filtered through glass fiber filters, the filters dried and then counted for radioactivity using a scintillation counter. Results are expressed as mean percent inhibition of control radioligand binding.

[2] = tested on: non-selective α1 adrenergic receptor in rat cerebral cortex; assay: α1 adrenergic receptor binding at 10 μM ([3H]prazosin); conditions: inhibition of control [3H]prazosin binding
Procedure: as §1
α1 Adrenergic Receptor. Binding at 10 μM. The binding assay evaluated the affinity of test article for the non-selective al adrenergic receptor in rat cerebral cortex. Membrane homogenates of cerebral cortex were incubated in duplicate for 60 minutes at room temperature with 0.25 nM [^3H]prazosin in the absence or presence of test articles at 10 μM. After the incubation period, samples were filtered through glass fiber filters, the filters dried and then counted for radioactivity using a scintillation counter. Results are expressed as mean percent inhibition of control radioligand binding.

[3] = tested on: K12PE (parental) cell line; assay: Cell proliferation, combination with Compound 2, combination index (Calcusyn), K12PE; format: cell-based; conditions: 3 days
Procedure: (§2) K12PE (parental) and K12PE-PR (pomalidomide resistant) cell lines were treated with various doses of Compound 2 in combination with increasing doses of a BRD4 inhibitor JQ1 for 3 days. Cell proliferation was analyzed using thymidine incorporation assays. Combination index values were calculated by Calcusyn and values below 10^0 represented the synergy between the combination treatments. The results are shown in FIG. 3A (K12PE), FIG. 3B (K12PE combination index), FIG. 3C (K12PE-PR), and FIG. 3D (K12PE-PR combination index), respectively.
(§3) AMO1, AMO1-PR (pomalidomide resistant), K12PE and K12PE-PR (pomalidomide resistant) cell lines were treated with increasing doses of Compound 2 in combination with an AURKB inhibitor (AZD 1152). Changes in cell proliferation were studied in response to monotherapy and combinations at Day 3 post treatment. Combination index values were calculated by Calcusyn and values below […] represented the synergy between the combination treatments. AUKKB is one of the key target gene of MDMS8 (molecularly defined myeloma segment 8), a high risk cluster identified from myeloma genome project. The results are shown in FIG. 8A (AMO1 combination index), FIG. 8B (K12PE combination index), FIG. 8C (AMO1-PR combination index), and FIG. 8D (K12PE-PR combination index), respectively. […]

[4] = tested on: K12PE-PR (pomalidomide resistant) cell line; assay: Cell proliferation, combination with Compound 2, combination index (Calcusyn), K12PE-PR; format: cell-based; conditions: 3 days
Procedure: as §2, §3

[5] = tested on: AMO1-PR (pomalidomide resistant) cell line; assay: Cell proliferation, combination with Compound 2, combination index (Calcusyn), AMO1-PR; format: cell-based; conditions: 3 days
Procedure: (§4) AMO1 (parental) and AMO1-PR (pomalidomide resistant) cell lines were treated with various doses of Compound 2 in combination with increasing doses of an MEK inhibitor trametinib for 3 days. Cell proliferation was analyzed using thymidine incorporation assays. Combination index values were calculated by Calcusyn and values below 10^0 represented the synergy between the combination treatments. The results are shown in FIG. 4A (AMO1), FIG. 4B (AMO1 combination index), FIG. 4C (AMO1-PR), and FIG. 4D (AMO1-PR combination index), respectively.
(§5) AMO1 and AMO1-PR (pomalidomide resistant) cell lines were treated with increasing doses of Compound 2 in combination with a PLK1 inhibitor (BI2536). Changes in cell proliferation were studied in response to monotherapy and combinations at Day 3 post treatment. Combination Index was calculated using Calcusyn based method. Combination index values were calculated by Calcusyn and values below 10^0 represented the synergy between the combination treatments. PLK1 is one of the key target gene of MDMS8 (molecularly defined myeloma segment 8), a high risk cluster identified from myeloma genome project. The results are shown in FIG. 6A (AMO1), FIG. 6B (AMO1 combination index), FIG. 6C (AMO1-PR), and FIG. 6D (AMO1-PR combination index), respectively. Inhibition of MDMS8 target gene PLK1 with Compound 2 is synergistic in AMO1 and AMO1-PR cells.
(§6) AMO1 and AMO1-PR (pomalidomide resistant) cell lines were treated with increasing doses of Compound 2 in combination with an NEK2 inhibitor (JH295). Changes in cell proliferation were studied in response to monotherapy and combinations at Day 3 post treatment. Combination index values were calculated by Calcusyn and values below 10^0 represented the synergy between the combination treatments. NEK2 is one of the key target gene of MDMS8 (molecularly defined myeloma segment 8), a high risk cluster identified from myeloma genome project. The results are shown in FIG. 7A (AMO1 combination index) and FIG. 7B (AMO1-PR combination index), respectively. Inhibition of MDMS8 target gene NEK2 with Compound 2 is synergistic in AMO1 and AMO1-PR cells.
(§7) AMO1, AMO1-PR (pomalidomide resistant), K12PE and K12PE-PR (pomalidomide resistant) cell lines were treated with increasing doses of Compound 2 in combination with an AURKB inhibitor (AZD 1152). […] Combination index values were calculated by Calcusyn and values below […] represented the synergy between the combination treatments. […]
(§8) AMO1, AMO1-PR (pomalidomide resistant) cell lines were treated with increasing doses of Compound 2 in combination with a BIRC5 inhibitor (YM155). […] Combination index values were calculated by Calcusyn and values below 10^0 represented the synergy between the combination treatments. […]

[6] = tested on: AMO1 (parental) cell line; assay: Cell proliferation, combination with Compound 2, combination index (Calcusyn), AMO1; format: cell-based; conditions: AMO1, 3 days
Procedure: as §4, §5, §6, §7, §8

H929-1051 cells = assay: 7 day combination assay (Annexin V/7-AAD flow cytometry, fractional product method), H929-1051; format: cell-based; conditions: H929-1051, 7 day assay
Procedure: (§9) Additional second agents, including DNA methyltransferase inhibitors, EZH2 inhibitors, DOT1L inhibitors, and BET inhibitors were selected for combination studies with Compound 2 in relapsed refractory multiple myeloma. Five MM cell lines with acquired or inherent resistance to lenalidomide or pomalidomide were included in the studies (OPM.2-P10, H929-1051, KMS12BM PR, L363, and JJN3). The effect of Compound 2 in combination with these second agents on MM cells were assessed in a 7 day in vitro assay. The MM cells were seeded at densities according to the growth rate of each cell line with the aim of achieving 50-100K cells by Day 7. The assay was performed in a 96-well plate. All MM cell lines were cultured in an incubator at 37° C. with 5% CO2 using the indicated cell culture media containing 1×Penicillin-Streptomycin. The MM cells were primed for 3 days with these second agents at the single agent IC50 value. […] Compound 2 was added to the cells at a dose range of 30 μM-0.00018 μM, depending on the cell line, for a 8 point dose response curve. The cells were incubated at 37° C. for an additional 4 days. At the end of the 7 day treatment, the MM cells were stained with Annexin V and 7-AAD and analyzed on a flow cytometer. Live MM cells were identified as Annexin V and 7-AAD double negative cells. […]

OPM-2.P10 cells = assay: 7 day combination assay (Annexin V/7-AAD flow cytometry, fractional product method), OPM.2-P10; format: cell-based; conditions: OPM-2.P10, 7 day assay
Procedure: as §9

H929 cell line = assay: Thymidine incorporation, combination with Compound 2, combination index (Calcusyn), H929; format: cell-based; conditions: H929, 3 days
Procedure: H929 cell line was treated with various doses of Compound 2 in combination with increasing doses of an EZH2 inhibitor UNC1999 for 3 days. Cell proliferation was analyzed using thymidine incorporation assays. Combination index values were calculated by Calcusyn and values below 10^0 represented the synergy between the combination treatments. The results are shown in FIG. 5A (H929) and FIG. 5B (H929 combination index).

[7] = tested on: acute myeloid leukemia (AML); conditions: administered alone; cited from earlier work

T1 sequence (P14416 1-414 isoform P14416-2): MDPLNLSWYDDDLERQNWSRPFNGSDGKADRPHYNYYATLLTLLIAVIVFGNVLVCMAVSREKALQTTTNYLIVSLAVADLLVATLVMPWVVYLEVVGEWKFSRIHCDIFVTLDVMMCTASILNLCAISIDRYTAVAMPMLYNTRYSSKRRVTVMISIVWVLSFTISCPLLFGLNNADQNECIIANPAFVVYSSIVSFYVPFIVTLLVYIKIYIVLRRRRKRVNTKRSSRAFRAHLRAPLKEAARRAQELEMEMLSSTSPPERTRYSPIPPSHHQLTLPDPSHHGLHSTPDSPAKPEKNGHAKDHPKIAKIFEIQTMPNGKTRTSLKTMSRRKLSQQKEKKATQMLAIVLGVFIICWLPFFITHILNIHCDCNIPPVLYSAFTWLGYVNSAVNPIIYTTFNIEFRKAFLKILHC

## N#Cc1ccc(N2CCN(Cc3ccc(COc4cccc5c4CN(C4CCC(=O)NC4=O)C5=O)cc3)CC2)c(F)c1 (racemic) [Compound 1, 4-(4-(4-(((2-(2,6-dioxopiperidin-3-yl)-1-oxoisoindolin-4-yl)oxy)methyl)benzyl)piperazin-1-yl)-3-fluorobenzonitrile]
[1]
  inhibition at 10 µM: 55%
[2]
  Adrenergic α1 % Inh. (@10 uM): 67%

## O=C1CCC(N2Cc3c(OCc4ccc(CN5CCN(c6ccc(F)cc6F)CC5)cc4)cccc3C2=O)C(=O)N1 (racemic) [Compound A, 3-(4-((4-((4-(2,4-difluorophenyl)piperazin-1-yl)methyl)benzyl)oxy)-1-oxoisoindolin-2-yl)piperidine-2,6-dione]
[1]
  inhibition at 10 µM: 99%
[2]
  Adrenergic α1 % Inh. (@10 uM): 102%

## CCN(CCCOc1ccc2c(Nc3cc(CC(=O)Nc4cccc(F)c4)[nH]n3)ncnc2c1)CCOP(=O)(O)O [AZD 1152]
[3]
  synergy with Compound 2 (combination index): synergistic
[4]
  synergy with Compound 2 (combination index): synergistic
[5]
  synergy with Compound 2 (combination index): synergistic
[6]
  synergy with Compound 2 (combination index): synergistic

## N#Cc1ccc(N2CCN(Cc3ccc(COc4cccc5c4CN([C@H]4CCC(=O)NC4=O)C5=O)cc3)CC2)c(F)c1 [Compound 2, (S)-4-(4-(4-(((2-(2,6-dioxopiperidin-3-yl)-1-oxoisoindolin-4-yl)oxy)methyl)benzyl)piperazin-1-yl)-3-fluorobenzonitrile]
[1]
  inhibition at 10 µM: 52%
[2]
  Adrenergic α1 % Inh. (@10 uM): 62%

## Cn1cc(-c2cc(S(C)(=O)=O)ccc2OCC2CC2)c2ccccc2c1=O [Compound C, 4-[2-(cyclopropylmethoxy)-5-(methanesulfonyl)phenyl]-2-methylisoquinolin-1(2H)-one]
H929-1051 cells
  synergy in combination with Compound 2: significant synergy
OPM-2.P10 cells
  synergy in combination with Compound 2: significant synergy

## Cc1sc2c(c1C)C(c1ccc(Cl)cc1)=N[C@@H](CC(=O)OC(C)(C)C)c1nnc(C)n1-2 [JQ1, (S)-tert-butyl 2-(4-(4-chlorophenyl)-2,3,9-trimethyl-6H-thieno[3,2-f][1,2,4]triazolo[4,3-a][1,4]diazepin-6-yl)acetate]
[3]
  synergy with Compound 2 (combination index): synergistic activity with Compound 2
[4]
  synergy with Compound 2 (combination index): synergistic activity with Compound 2

## CCCc1cc(C)[nH]c(=O)c1CNC(=O)c1cc(-c2ccc(N3CCN(C(C)C)CC3)nc2)cc2c1cnn2C(C)C [UNC1999, 1-Isopropyl-6-(6-(4-isopropylpiperazin-1-yl)pyridin-3-yl)-N-((6-methyl-2-oxo-4-propyl-1,2-dihydropyridin-3-yl)methyl)-1H-indazole-4-carboxamide]
H929 cell line
  synergy with Compound 2 (combination index): synergistic activity with Compound 2

## CT-011: anti-PD-1 antibody, a humanized antibody
[7]
  response in treating acute myeloid leukemia (AML) at relapse: failed to show response
